Patent publication US20100216751A1 (priority 2007, published 2010)
Values joined by “and” are separate entries in the source; they are usually repeats but may differ in a detail not shown here. Equal entries are not always repeated.

Test: Pharmacokinetic evaluation of liquid bevirimat dosage forms, oral gavage, male Cynomolgus monkeys
Procedure: Six male Cynomolgus monkeys having an initial body weight of about 3.5 to about 4.5 kg are allowed 7 days to acclimate to their individual housing units. Monkeys are supplied with water and a commercial diet ad libitum prior to the study initiation. Food is withheld from the monkeys for a minimum of twelve hours before the study and during the study until four hours postdose when food is returned. Water is supplied ad libitum.
Test formulations are administered to the monkeys at time 0 on appropriate days. Test formulations will be dosed orally via oral gavage or intravenously.
Samples are drawn at the frequencies indicated below. Each blood sample (0.5 mL) is collected from the monkey's saphenous vein via a butterfly catheter and placed into a chilled polypropylene tube containing sodium heparin as the anticoagulant. Blood samples are centrifuged at a temperature of 4° C. at a speed of 3,000 rpm for 15 minutes. All samples are maintained chilled throughout processing. Plasma is collected after centrifugation, pipetted into a 2-mL polypropylene microtube, and frozen on dry-ice pending analytical evaluation.

[1] = oral, 50 mg/monkey, PG/glycerin/Vitamin ETPGS/Tween80/Plasdone C15 formulation, individual monkey
[2] = oral, 50 mg/monkey, PG/glycerin/Vitamin ETPGS/ethanol formulation, individual monkey
[3] = oral, 200 mg/monkey, PG/glycerin/Vitamin ETPGS/ethanol formulation, individual monkey

C=C(C)[C@@H]1CC[C@]2(C(=O)O)CC[C@]3(C)[C@H](CC[C@@H]4[C@@]5(C)CC[C@H](OC(=O)CC(C)(C)C(=O)O)C(C)(C)[C@@H]5CC[C@]43C)[C@@H]12 [Bevirimat, 3-O-(3′,3′-dimethylsuccinyl)betulinic acid]
concentration at 6 hr (male, cynomolgus monkey, in vivo, po, 200 mg/monkey, Plasma Concentration, PG/glycerin/Vitamin ETPGS/ethanol formulation, 6.0 hr, individual monkey): 79400 ng/mL
concentration at 8 hr (male, cynomolgus monkey, in vivo, po, 200 mg/monkey, Plasma Concentration, PG/glycerin/Vitamin ETPGS/ethanol formulation, 8.0 hr, AVG): 51300 ng/mL
concentration at 8 hr (male, cynomolgus monkey, in vivo, po, 200 mg/monkey, Plasma Concentration, PG/glycerin/Vitamin ETPGS/ethanol formulation, 8.0 hr, individual monkey): 53400 ng/mL
concentration at 12 hr (male, cynomolgus monkey, in vivo, po, 200 mg/monkey, Plasma Concentration, PG/glycerin/Vitamin ETPGS/ethanol formulation, 12 hr, AVG): 19600 ng/mL
concentration at 12 hr (male, cynomolgus monkey, in vivo, po, 200 mg/monkey, Plasma Concentration, PG/glycerin/Vitamin ETPGS/ethanol formulation, 12 hr, individual monkey): 15600 ng/mL
concentration at 24 hr (male, cynomolgus monkey, in vivo, po, 200 mg/monkey, Plasma Concentration, PG/glycerin/Vitamin ETPGS/ethanol formulation, 24 hr, AVG): 4840 ng/mL
concentration at 48 hr (male, cynomolgus monkey, in vivo, po, 200 mg/monkey, Plasma Concentration, PG/glycerin/Vitamin ETPGS/ethanol formulation, 48 hr, AVG): 2620 ng/mL
concentration at 72 hr (male, cynomolgus monkey, in vivo, po, 200 mg/monkey, Plasma Concentration, PG/glycerin/Vitamin ETPGS/ethanol formulation, 72 hr, AVG): 296 ng/mL
Plasma Concentration (oral, 50 mg/monkey, PG/glycerin/Vitamin ETPGS/Tween80/Plasdone C15 formulation, 0.25 hr, individual monkey): 56.3 ng/mL and 67.8 ng/mL
Plasma Concentration (oral, 50 mg/monkey, PG/glycerin/Vitamin ETPGS/Tween80/Plasdone C15 formulation, 0.50 hr, individual monkey): 409 ng/mL and 2660 ng/mL and 7590 ng/mL
Plasma Concentration (oral, 50 mg/monkey, PG/glycerin/Vitamin ETPGS/Tween80/Plasdone C15 formulation, 1.0 hr, individual monkey): 1010 ng/mL and 17400 ng/mL and 56100 ng/mL
Plasma Concentration (oral, 50 mg/monkey, PG/glycerin/Vitamin ETPGS/Tween80/Plasdone C15 formulation, 2.0 hr, individual monkey): 63500 ng/mL and 68500 ng/mL
Plasma Concentration (oral, 50 mg/monkey, PG/glycerin/Vitamin ETPGS/Tween80/Plasdone C15 formulation, 6.0 hr, individual monkey): 36300 ng/mL and 29000 ng/mL
Plasma Concentration (oral, 50 mg/monkey, PG/glycerin/Vitamin ETPGS/Tween80/Plasdone C15 formulation, 8.0 hr, individual monkey): 21800 ng/mL and 19000 ng/mL
Plasma Concentration (oral, 50 mg/monkey, PG/glycerin/Vitamin ETPGS/Tween80/Plasdone C15 formulation, 12 hr, individual monkey): 9150 ng/mL and 6750 ng/mL
Plasma Concentration (oral, 50 mg/monkey, PG/glycerin/Vitamin ETPGS/Tween80/Plasdone C15 formulation, 24 hr, individual monkey): 1490 ng/mL and 988 ng/mL
Plasma Concentration (oral, 50 mg/monkey, PG/glycerin/Vitamin ETPGS/Tween80/Plasdone C15 formulation, 48 hr, individual monkey): 635 ng/mL and 174 ng/mL and 200 ng/mL
Plasma Concentration (oral, 50 mg/monkey, PG/glycerin/Vitamin ETPGS/Tween80/Plasdone C15 formulation, 72 hr, individual monkey): BLOQ
Cmax [1]: 63500 ng/mL and 68500 ng/mL
t1/2 [1]: 5.3 h and 5.4 h
Plasma Concentration (oral, 50 mg/monkey, PG/glycerin/Vitamin ETPGS/ethanol formulation, 0.25 hr, individual monkey): BLOQ
Plasma Concentration (oral, 50 mg/monkey, PG/glycerin/Vitamin ETPGS/ethanol formulation, 0.50 hr, individual monkey): 268 ng/mL and 420 ng/mL and 49.7 ng/mL
Plasma Concentration (oral, 50 mg/monkey, PG/glycerin/Vitamin ETPGS/ethanol formulation, 1.0 hr, individual monkey): 40200 ng/mL and 23100 ng/mL
Plasma Concentration (oral, 50 mg/monkey, PG/glycerin/Vitamin ETPGS/ethanol formulation, 2.0 hr, individual monkey): 70800 ng/mL
Plasma Concentration (oral, 50 mg/monkey, PG/glycerin/Vitamin ETPGS/ethanol formulation, 4.0 hr, individual monkey): 33200 ng/mL and 59800 ng/mL
Plasma Concentration (oral, 50 mg/monkey, PG/glycerin/Vitamin ETPGS/ethanol formulation, 6.0 hr, individual monkey): 18100 ng/mL and 14000 ng/mL and 37000 ng/mL
Plasma Concentration (oral, 50 mg/monkey, PG/glycerin/Vitamin ETPGS/ethanol formulation, 8.0 hr, individual monkey): 10600 ng/mL and 10000 ng/mL and 23600 ng/mL
Plasma Concentration (oral, 50 mg/monkey, PG/glycerin/Vitamin ETPGS/ethanol formulation, 12 hr, individual monkey): 3390 ng/mL and 3450 ng/mL and 9100 ng/mL
Plasma Concentration (oral, 50 mg/monkey, PG/glycerin/Vitamin ETPGS/ethanol formulation, 24 hr, individual monkey): 922 ng/mL and 1100 ng/mL and 2000 ng/mL
Plasma Concentration (oral, 50 mg/monkey, PG/glycerin/Vitamin ETPGS/ethanol formulation, 48 hr, individual monkey): 62.6 ng/mL and 97.8 ng/mL and 286 ng/mL
Plasma Concentration (oral, 50 mg/monkey, PG/glycerin/Vitamin ETPGS/ethanol formulation, 72 hr, individual monkey): BLOQ
Cmax [2]: 50500 ng/mL and 70800 ng/mL
Dnzed AUCall [2]: 33692 ng·h/mL/mg/kg
t1/2 [2]: 7.0 h and 7.4 h
Plasma Concentration (oral, 200 mg/monkey, PG/glycerin/Vitamin ETPGS/ethanol formulation, 0.25 hr, individual monkey): 1040 ng/mL and 89.0 ng/mL
Plasma Concentration (oral, 200 mg/monkey, PG/glycerin/Vitamin ETPGS/ethanol formulation, 0.50 hr, individual monkey): 10300 ng/mL and 1740 ng/mL
Plasma Concentration (oral, 200 mg/monkey, PG/glycerin/Vitamin ETPGS/ethanol formulation, 1.0 hr, individual monkey): 88400 ng/mL and 41200 ng/mL
Plasma Concentration (oral, 200 mg/monkey, PG/glycerin/Vitamin ETPGS/ethanol formulation, 2.0 hr, individual monkey): 232000 ng/mL
Plasma Concentration (oral, 200 mg/monkey, PG/glycerin/Vitamin ETPGS/ethanol formulation, 4.0 hr, individual monkey): 138000 ng/mL
Plasma Concentration (oral, 200 mg/monkey, PG/glycerin/Vitamin ETPGS/ethanol formulation, 6.0 hr, individual monkey): 76300 ng/mL
Plasma Concentration (oral, 200 mg/monkey, PG/glycerin/Vitamin ETPGS/ethanol formulation, 12 hr, individual monkey): 23700 ng/mL
Plasma Concentration (oral, 200 mg/monkey, PG/glycerin/Vitamin ETPGS/ethanol formulation, 24 hr, individual monkey): 2180 ng/mL and 7500 ng/mL
Plasma Concentration (oral, 200 mg/monkey, PG/glycerin/Vitamin ETPGS/ethanol formulation, 48 hr, individual monkey): 547 ng/mL and 4700 ng/mL
Plasma Concentration (oral, 200 mg/monkey, PG/glycerin/Vitamin ETPGS/ethanol formulation, 72 hr, individual monkey): 117 ng/mL and 474 ng/mL
AUCall [3]: 1398.863 µg·h/mL
Cmax [3]: 232000 ng/mL
Dnzed AUCall [3]: 27977 ng·h/mL/mg/kg
t1/2 [3]: 10.1 h
